What was measured:
[1] = 2 to 100 μM in distilled water, λex=720 nm
Method: Before developing a surgical marker using indocyanine green and human serum albumin conjugate, in order to determine the appropriate concentration of indocyanine green and human serum albumin conjugate, the two substances were mixed by each concentration to observe change in fluorescence (λex=720 nm) and absorbance.
3 mL of distilled water was added to 1.5 mg of indocyanine green (ICG, purchased from Sigma-Aldrich) and dissolved by stirring to prepare a high concentration of indocyanine green solution. Distilled water was added to the high concentration of indocyanine green solution and mixed through stirring to prepared a 2 to 100 μM solution.

[2] = Persistence of fluorescence after subcutaneous injection in nude mouse (IVIS fluorescence image); assay type: in vivo
Method: In order to see the fluorescence persistence of the alginic acid hydrogel containing indocyanine green-human serum albumin in a nude mouse, it was injected in the form of a gel subcutaneously to the nude mouse through a dual syringe, and then the labeling performance over time was photographed with a fluorescent image device (IVIS Lumina XR, Xenogen Corporation-Caliper, CA, USA). Three solutions to be injected into the animal model were prepared in the same manner as in Preparation Examples 7 to 9. FIG. 7 is a schematic diagram of injecting an alginic acid hydrogel containing indocyanine green-human serum albumin subcutaneously to a nude mouse using a dual syringe.
The solutions of Preparation Examples 7 to 9 were injected subcutaneously to a nude mouse, respectively so that the total volume was 100 μL using a dual syringe.

concentration up to which maximum fluorescence intensity increased [1]: about 20 μM
fluorescence remaining compared to immediately after injection ([2]; ROI value, when one day passed): 16%
Compound: CC1(C)C(/C=C/C=C/C=C/C=C2\N(CCCCS(=O)(=O)O)c3ccc4ccccc4c3C2(C)C)=[N+](CCCCS(=O)(=O)[O-])c2ccc3ccccc3c21 [indocyanine green]
time fluorescence was maintained / emitted (FIG. 8) ([2]; 100 μL subcutaneous, nude mouse, λex=780 nm, λem=845 nm): about one
time at which fluorescence (ROI value) was greatest ([2]; FIG. 10A, nude mouse): 6 h
time in which fluorescence signals almost disappeared ([2]; FIG. 10C, nude mouse): 48 h
time after which injected solution spread and disappeared at injection site (FIG. 9) ([2]; appearance of injected site, nude mouse): about 24 hours

— patent publication US20250082787A1, “ALGINIC ACID-BASED INJECTABLE HYDROGEL SYSTEM” (National Cancer Center, priority 2018, published 2025)
